Among the data in ChEMBL document CHEMBL5728364, “Compounds as autotaxin inhibitors and pharmaceutical compositions comprising the same” (2021) are IC50 values, retold here.

The assay concerns the target Autotaxin (Homo sapiens, UniProt Q13822). Nature of the assay: Inhibitory Activity Assay: Two-fold dilution of each test compound solution (10 μM, 100% dimethyl sulfoxide) is carried out on 96-well V bottom plate (Costar 3363). After ten-fold dilution of each the test compound solution (100% dimethyl sulfoxide) with deionized distilled water, 10 μL of the diluted each mpound solution (10% dimethyl sulfoxide) was aliquoted to a black flat bottom 96-well plate (Costar 3915). 50 μL of 1.6× Assay solution (224 mM NaCl, 80 mM Tris-HCl (pH 8.0), 8 mM KCl, 1.6 mM CaCl2, 1.6 mM MgCl2, and 1.6 mg/mL fatty acid free BSA) was added thereto, and subsequently 20 μL of 20 nM human ENPP2 solution (buffer solution: 140 mM NaCl, 50 mM Tris-HCl (pH 8.0), 5 mM KCl, 1 mM CaCl2, 1 mM MgCl2, and 1 mg/mL fatty acid free BSA) and 20 μL of 5 μM FS-3 solution (buffer solution:deionized distilled water) were added thereto, respectively, followed by mixing.

Regarding `O=C(Cc1nc(-c2cnc(NC3Cc4ccccc4C3)nc2)no1)N1CCc2[nH]nnc2C1`, the IC50 (as a rule, the midpoint of a concentration-inhibition curve) is 2.5 nM.

The compound `O=C(NCCN1CCN(c2cnc(NC3Cc4ccccc4C3)nc2)CC1)c1ccc2[nH]c(=O)oc2c1` had an IC50 of 2.9 nM.

`O=C(Cn1cc(-c2cnc(NCc3cccc(OC(F)(F)F)c3)nc2)nn1)N1CCc2[nH]nnc2C1` had an IC50 of 2.9 nM.

Consider `NS(=O)(=O)NC1CCN(C(=O)Cc2nnc(-c3cnc(NC4Cc5ccccc5C4)nc3)o2)C1` (centres undefined), for which the IC50 was 4.6 nM.
